The values below come from ChEMBL document CHEMBL5465560, “Selectivity Literature for EUbOPEN Chemogenomic Library” (2024).

Each structure is given as a SMILES string.

Assay [1] has as its target Mitogen-activated protein kinase 11 (Homo sapiens) (UniProt Q15759). In words: Selectivity interaction (KinomeScan (DiscoverX)) EUB0000666a MAPK11. The conditions noted are these: at 10 µM.
The target of assay [2] is T1, Serine/threonine-protein kinase RIO3 (Homo sapiens) (UniProt O14730).
T1 sequence (whole entry): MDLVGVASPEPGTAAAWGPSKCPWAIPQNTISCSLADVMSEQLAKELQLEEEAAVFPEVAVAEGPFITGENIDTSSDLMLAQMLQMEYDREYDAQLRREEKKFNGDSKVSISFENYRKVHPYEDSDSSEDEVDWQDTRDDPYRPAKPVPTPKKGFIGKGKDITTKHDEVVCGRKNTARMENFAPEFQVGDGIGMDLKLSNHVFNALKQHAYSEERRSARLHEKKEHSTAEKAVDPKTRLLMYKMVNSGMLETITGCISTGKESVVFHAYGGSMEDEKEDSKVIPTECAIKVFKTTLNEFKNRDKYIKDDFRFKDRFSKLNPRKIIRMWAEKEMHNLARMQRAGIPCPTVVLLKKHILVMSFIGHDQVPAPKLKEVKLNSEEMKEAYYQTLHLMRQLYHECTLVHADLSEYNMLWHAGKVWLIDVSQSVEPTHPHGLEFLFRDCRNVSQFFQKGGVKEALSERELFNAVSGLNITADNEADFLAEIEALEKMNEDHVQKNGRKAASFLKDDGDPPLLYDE
The conditions noted are these: at 10 µM.

Assay [3] deals with T2, Serine/threonine-protein kinase 36 (Homo sapiens) (UniProt Q9NRP7).
T2 sequence (whole entry): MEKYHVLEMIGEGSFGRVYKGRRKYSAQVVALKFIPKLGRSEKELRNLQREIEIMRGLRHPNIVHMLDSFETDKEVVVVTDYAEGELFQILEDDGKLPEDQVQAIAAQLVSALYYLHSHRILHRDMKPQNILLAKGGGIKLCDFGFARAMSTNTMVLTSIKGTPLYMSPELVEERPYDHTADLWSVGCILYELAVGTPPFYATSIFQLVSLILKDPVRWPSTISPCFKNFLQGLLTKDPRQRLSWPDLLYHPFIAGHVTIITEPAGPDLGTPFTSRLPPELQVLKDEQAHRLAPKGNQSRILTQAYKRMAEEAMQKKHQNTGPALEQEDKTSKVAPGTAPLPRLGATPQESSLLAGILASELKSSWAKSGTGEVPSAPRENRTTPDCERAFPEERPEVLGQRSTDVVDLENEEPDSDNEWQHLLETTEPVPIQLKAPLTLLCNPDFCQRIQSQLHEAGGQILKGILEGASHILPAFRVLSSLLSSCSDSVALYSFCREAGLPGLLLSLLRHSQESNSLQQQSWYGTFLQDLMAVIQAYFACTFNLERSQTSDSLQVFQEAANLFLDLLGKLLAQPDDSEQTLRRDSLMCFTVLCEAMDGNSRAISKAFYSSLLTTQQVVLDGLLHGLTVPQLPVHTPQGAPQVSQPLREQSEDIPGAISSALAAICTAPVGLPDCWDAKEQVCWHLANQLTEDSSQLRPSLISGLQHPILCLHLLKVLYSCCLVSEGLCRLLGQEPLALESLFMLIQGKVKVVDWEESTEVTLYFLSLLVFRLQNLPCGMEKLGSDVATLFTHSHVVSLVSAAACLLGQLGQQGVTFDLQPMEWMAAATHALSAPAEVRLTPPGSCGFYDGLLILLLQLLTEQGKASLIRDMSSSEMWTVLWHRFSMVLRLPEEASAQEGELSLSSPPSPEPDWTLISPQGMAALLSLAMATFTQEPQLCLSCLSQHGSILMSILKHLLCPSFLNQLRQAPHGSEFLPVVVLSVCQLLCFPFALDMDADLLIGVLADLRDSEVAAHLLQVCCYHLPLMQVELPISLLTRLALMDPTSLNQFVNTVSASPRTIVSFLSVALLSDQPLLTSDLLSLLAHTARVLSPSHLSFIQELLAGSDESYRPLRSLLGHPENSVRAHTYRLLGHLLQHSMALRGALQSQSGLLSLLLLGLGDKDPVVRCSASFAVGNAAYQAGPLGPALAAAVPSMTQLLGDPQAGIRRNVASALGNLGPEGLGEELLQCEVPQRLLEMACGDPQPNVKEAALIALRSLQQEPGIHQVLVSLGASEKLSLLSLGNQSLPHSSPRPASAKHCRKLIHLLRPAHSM
In words: Selectivity interaction (Ambit KINOMEscan and KiNATiv profiling in Jurkat cells) EUB0000090b STK36. The assay is classed as cell-based. The conditions noted are these: at 1 µM.

Assay [4] addresses T3, Serine/threonine-protein kinase D3 (Homo sapiens) (UniProt O94806).
T3 sequence (whole entry): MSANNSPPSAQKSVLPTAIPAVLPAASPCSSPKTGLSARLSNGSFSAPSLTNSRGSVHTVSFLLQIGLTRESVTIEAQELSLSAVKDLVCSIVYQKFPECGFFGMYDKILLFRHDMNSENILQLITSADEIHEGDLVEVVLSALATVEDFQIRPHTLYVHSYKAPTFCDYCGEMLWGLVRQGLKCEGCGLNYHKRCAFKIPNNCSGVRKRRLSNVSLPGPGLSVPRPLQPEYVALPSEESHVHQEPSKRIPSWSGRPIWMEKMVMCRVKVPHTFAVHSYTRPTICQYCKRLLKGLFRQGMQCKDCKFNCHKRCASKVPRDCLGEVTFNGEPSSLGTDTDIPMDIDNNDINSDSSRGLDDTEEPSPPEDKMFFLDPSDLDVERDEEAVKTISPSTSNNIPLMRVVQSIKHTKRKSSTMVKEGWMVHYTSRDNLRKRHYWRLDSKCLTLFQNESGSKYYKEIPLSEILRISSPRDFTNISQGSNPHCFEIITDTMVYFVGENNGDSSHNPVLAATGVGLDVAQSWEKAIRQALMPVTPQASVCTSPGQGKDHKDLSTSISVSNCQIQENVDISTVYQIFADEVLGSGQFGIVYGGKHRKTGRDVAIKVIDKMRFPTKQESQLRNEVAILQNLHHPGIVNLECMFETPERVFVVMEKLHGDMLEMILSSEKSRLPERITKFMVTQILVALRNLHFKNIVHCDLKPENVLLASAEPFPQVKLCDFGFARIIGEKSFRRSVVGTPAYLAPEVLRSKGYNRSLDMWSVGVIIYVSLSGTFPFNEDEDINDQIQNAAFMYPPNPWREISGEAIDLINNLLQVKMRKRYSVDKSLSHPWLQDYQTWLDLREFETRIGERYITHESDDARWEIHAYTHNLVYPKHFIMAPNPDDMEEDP
In words: Selectivity interaction (KinomeScan (DiscoverX)) EUB0000618a PRKD3. The conditions noted are these: at 10 µM.

Mitogen-activated protein kinase 11 (Homo sapiens), sequence (Q15759 whole entry): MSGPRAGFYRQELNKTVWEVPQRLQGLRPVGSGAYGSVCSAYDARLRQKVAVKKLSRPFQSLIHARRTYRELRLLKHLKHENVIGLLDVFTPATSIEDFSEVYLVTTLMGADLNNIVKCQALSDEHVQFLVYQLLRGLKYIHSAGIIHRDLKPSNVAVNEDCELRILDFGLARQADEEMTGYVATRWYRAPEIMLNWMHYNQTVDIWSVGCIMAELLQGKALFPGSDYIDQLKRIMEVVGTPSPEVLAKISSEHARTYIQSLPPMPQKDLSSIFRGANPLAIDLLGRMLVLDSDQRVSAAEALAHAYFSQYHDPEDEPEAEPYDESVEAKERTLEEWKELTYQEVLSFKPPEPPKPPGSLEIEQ

For the molecule `O=C(NOC[C@H](O)CO)c1ccc(F)c(F)c1Nc1ccc(I)cc1F`, in assay [1], the % of control came out at 100%.

For `Cc1cc([C@@H](C)Nc2ccccc2C(=O)O)c2nc(N3CCOCC3)cc(=O)n2c1` [AZD-6482], in assay [2], the % of control is 100%.

`CN(C)C/C=C/C(=O)Nc1ccc(C(=O)N2CCCC(Nc3ncc(Cl)c(-c4c[nH]c5ccccc45)n3)C2)cc1` (centres undefined) displayed a % of control in assay [3] of 85%.

Molecule `O[C@H]1CC[C@H](Nc2ncc3nc(Nc4c(F)cc(F)cc4F)n([C@H]4CCOC4)c3n2)CC1` registered a % of control in assay [4] of 84%.
